Data: publication PMC8071534, “Discovery of Potential, Dual-Active Histamine H3 Receptor Ligands with Combined Antioxidant Properties” (Molecules, 2021)
“And” between values parts separate entries of the source, which are not always exact repeats. Equal entries are not always repeated. Where two headings read alike, the source gives them in different places.

Legend:
[1] = target: T1, human recombinant histamine H3R stably expressed in HEK-293 cells (Homo sapiens, UniProt Q9Y5N1); experiment: [3H]Nα-methylhistamine hH3R displacement (radioligand depletion) binding assay; details: mean [95% confidence interval]
T1 construct: HEK-293 cells stably expressing the recombinant full length hH3R; expressed in transfected cells; crude membrane preparations
T1 sequence (Q9Y5N1 whole entry): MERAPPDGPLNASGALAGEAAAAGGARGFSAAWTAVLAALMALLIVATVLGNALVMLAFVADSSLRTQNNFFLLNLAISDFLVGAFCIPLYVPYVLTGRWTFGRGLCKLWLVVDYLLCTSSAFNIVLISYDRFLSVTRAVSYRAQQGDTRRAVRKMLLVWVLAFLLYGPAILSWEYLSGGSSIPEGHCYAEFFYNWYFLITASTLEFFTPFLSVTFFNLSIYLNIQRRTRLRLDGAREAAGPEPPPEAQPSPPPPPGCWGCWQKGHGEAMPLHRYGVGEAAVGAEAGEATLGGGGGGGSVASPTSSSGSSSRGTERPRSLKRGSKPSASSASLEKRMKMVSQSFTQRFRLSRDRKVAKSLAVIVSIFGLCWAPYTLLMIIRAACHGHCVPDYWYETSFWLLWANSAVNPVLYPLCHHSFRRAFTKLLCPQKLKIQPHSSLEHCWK
Text: Unbound radioligand was removed by three washing steps with ice-cold water.

[2] = DPPH free radical scavenging assay; details: for DPPH Assay (λ = 517 nm) Absorbance Decrease in 10^−4 mol/L Concentration [%] Mean ± SEM: 30 min incubation, vs solvent + reaction mixture blank
Protocol: (§1) In order to determine the possible antioxidant properties, selected compounds were tested in 2,2-diphenyl-1-picrylhydrazyl (DPPH) and ferric reducing antioxidant power (FRAP) assay with ascorbic acid as a reference compound (Table 2). For details, please refer to the Materials and Methods Section. Graphical representation of tests results can be found in Supplementary Material.
(§2) Antioxidant properties of compounds were tested in vitro in two different assays: the 2,2-diphenyl-1-picrylhydrazyl (DPPH) assay and the FeCl3 reduction activity assay (FRAP, ferric reducing antioxidant power). The tested compounds and ascorbic acid were dissolved in DMSO at the 10^−2 mol/L concentration, and in ethanol at the concentration of 10^−4 mol/L respectively. Moreover, 30% and 50% ascorbic acid activity cut-off for DPPH and FRAP assays respectively were set ad hoc.
DPPH is a molecule containing a stable free radical. The reduction of DPPH (purple) in ethanol solution takes place in the presence of a hydrogen-donating antioxidant due to the formation of the non-radical form of DPPH-H (yellow). This transformation results in color change from purple to yellow, which can be measured spectrophotometrically. Thus, the decrease in absorbance is proportional to the decrease in concentration of DPPH (free radical) and discoloration of reaction mixture indicates the scavenging of free radicals by a tested antioxidant.
In order to determine antioxidant capacity, 20 μL of the compound solutions (dissolved in 96% ethanol) was mixed with 180 μL of 0.3 mM ethanolic DPPH solution. The change in the absorbance was detected at 517 nm after 30 min of incubation. Results were expressed as percentage decrease in absorbance of the tested sample, compared to the sample containing the solvent + reaction mixture (blank with maximum concentration of the DPPH radical). L-ascorbic acid was used as a reference compound. Calculations were made using MS Excel, from the proportion where the change of absorbance in the vitamin C (vit. C) group was treated as 100%, according to Equation (1):(1) % activity of Vit.C=ΔAb×100/ΔAVit. C
Calculation of % Vit. C activity: ΔAb -the change in the absorbance of the test sample and ΔAVit. C is change in the absorbance of reference sample, or with vit. C.

[3] = FRAP (ferric reducing antioxidant power) assay; details: 10 min incubation, vs sample containing solvent
Protocol: as §1, §2
A modified method of Benzie and Strain [38] was adopted for the FRAP assay. The stock solutions included 300 mM acetate buffer (3.1 g of C2H3NaO2 × 3H2O and 16 mL of C2H4O2), pH 3.6, 10 mM TPTZ (2,4,6-tripyridyl-s-triazine) solution in 40 mM HCl, and 20 mM FeCl3 × 6H2O solution. The working solution was prepared by mixing 10 parts of acetate buffer, 1 part of TPTZ solution, and 1 part of FeCl3 × 6H2O solution. A portion of 180 μL of the FRAP solution was mixed with 20 μL of the tested compound solution and incubated at room temperature for 10 min in the dark. Readings of the color product (ferrous tripyridyl triazine complex) were then taken at 593 nm against ethanol. Results are expressed as an increase in absorbance of the test sample compared to a sample containing the solvent. L-ascorbic acid was used as reference compound.

hH3R = details: reference ligands, Figure 1; cited from earlier work
rH3R = details: Figure 1; cited from earlier work
[4] = target: T1, human recombinant histamine H3R stably expressed in HEK-293 cells; parameters: method as in PMID 21237145, PMID 29960729; details: radioligand of the binding assay; read-out: KD of the radioligand at hH3R; cited from earlier work
hσ1R = details: Figure 1; cited from earlier work
hBuChE = details: Figure 1; cited from earlier work
rVAChT = details: Figure 1; cited from earlier work
rσ2R = details: Figure 1; cited from earlier work
[5] = hH3R Ki [nM] x¯ [CI 95%], [3H]Nα-methylhistamine displacement, HEK-293 membranes
[6] = [3H]Nα-methylhistamine displacement, HEK-293 membranes, read-out: hH3R Ki [nM] x¯ [CI 95%]
[7] = hH3R Ki [nM] x¯ [CI 95%], values obtained using 0.025% HCl in binding buffer

Structure (SMILES): CC(=O)N1CCN(CCCOc2ccc(C(=O)c3ccc(F)cc3)cc2)CC1.O=C(O)C(=O)O [Compound 6, 1-(4-(3-(4-(4-Fluorobenzoyl)phenoxy)propyl)piperazin-1-yl)ethan-1-one hydrogen oxalate]
- Ki [1, 5]: 1100 nM
- melting point: 171.3 to 173.1 °C
- DPPH Assay (λ = 517 nm) Absorbance Decrease in 10^−4 mol/L Concentration [%] Mean ± SEM [2]: 8.82 ± 0.12%
- FRAP Assay (λ = 593 nm) Absorbance Increase in 10^−4 mol/L Concentration [%] Mean ± SEM [3]: 0.79 ± 0.39%

Structure (SMILES): CC(=O)c1ccc(N2CCN(CCCOc3ccc(C(=O)c4ccccc4)cc3)CC2)cc1 [Compound 10, 1-(4-(4-(3-(4-Benzoylphenoxy)propyl)piperazin-1-yl)phenyl)ethan-1-one]
- Ki [1, 6]: 633 nM
- melting point: 148.4 to 151.4 °C
- DPPH Assay (λ = 517 nm) Absorbance Decrease in 10^−4 mol/L Concentration [%] Mean ± SEM [2]: 2.44 ± 0.97%
- FRAP Assay (λ = 593 nm) Absorbance Increase in 10^−4 mol/L Concentration [%] Mean ± SEM [3]: 3.66 ± 0.59%

Structure (SMILES): Cn1nc(N2CCC(OC(=O)N3CCN(C4CCC4)CC3)CC2)ccc1=O [LML134]
- Ki (hH3R): 12 nM

Structure (SMILES): CC(=O)N1CCN(CCCOc2ccc(C(=O)c3ccc(Cl)cc3)cc2)CC1 [Compound 5, 1-(4-(3-(4-(4-Chlorobenzoyl)phenoxy)propyl)piperazin-1-yl)ethan-1-one]
- Ki [1, 6]: 1260 nM

Structure (SMILES): CC(=O)N1CCN(CCCOc2ccc(C(=O)c3ccccc3)cc2)CC1.O=C(O)C(=O)O [Compound 4, 1-(4-(3-(4-Benzoylphenoxy)propyl)piperazin-1-yl)ethan-1-one hydrogen oxalate]
- Ki [1, 5]: 3650 nM
- melting point: 136.8 to 140 °C

Structure (SMILES): O=C(c1ccccc1)c1ccc(OCCCN2CCN(c3ccc([N+](=O)[O-])cc3)CC2)cc1 [Compound 13, (4-(3-(4-(4-Nitrophenyl)piperazin-1-yl)propoxy)phenyl)(phenyl)methanone]
- Ki [1, 6]: > 1000 nM
- melting point: 182.3 to 183.9 °C

Structure (SMILES): O=C(c1ccc(F)cc1)c1ccc(OCCCN2CCN(c3ccc([N+](=O)[O-])cc3)CC2)cc1 [Compound 15, (4-Fluorophenyl)(4-(3-(4-(4-nitrophenyl)piperazin-1-yl)propoxy)phenyl)methanone]
- Ki [1, 6]: 580 nM
- melting point: 173.3 to 174.2 °C

Structure (SMILES): CC(=O)c1ccc(N2CCN(CCCOc3ccc(C(=O)c4ccc(F)cc4)cc3)CC2)cc1 [Compound 12, 1-(4-(4-(3-(4-(4-Fluorobenzoyl)phenoxy)propyl)piperazin-1-yl)phenyl)ethan-1-one]
- Ki [1, 6]: 1010 nM
- melting point: 162 to 163.6 °C
- DPPH Assay (λ = 517 nm) Absorbance Decrease in 10^−4 mol/L Concentration [%] Mean ± SEM [2]: 4.42 ± 0.33%
- FRAP Assay (λ = 593 nm) Absorbance Increase in 10^−4 mol/L Concentration [%] Mean ± SEM [3]: 2.70 ± 1.15%

Structure (SMILES): O=C(O)C(=O)O.O=C(c1ccccc1)c1ccc(OCCCN2CCN(C(=O)C3CC3)CC2)cc1 [Compound 7, (4-(3-(4-Benzoylphenoxy)propyl)piperazin-1-yl)(cyclopropyl)methanone hydrogen oxalate]
- Ki [1, 5]: 1330 nM
- melting point: 167.3 to 168.6 °C
- DPPH Assay (λ = 517 nm) Absorbance Decrease in 10^−4 mol/L Concentration [%] Mean ± SEM [2]: 6.23 ± 0.53%
- FRAP Assay (λ = 593 nm) Absorbance Increase in 10^−4 mol/L Concentration [%] Mean ± SEM [3]: 1.43 ± 0.32%

Structure (SMILES): O=C1O[C@H]([C@@H](O)CO)C(O)=C1O [Ascorbic acid, L-ascorbic acid, reference compound]
- DPPH Assay (λ = 517 nm) Absorbance Decrease in 10^−4 mol/L Concentration [%] Mean ± SEM [2]: 20.52 ± 0.51%
- FRAP Assay (λ = 593 nm) Absorbance Increase in 10^−4 mol/L Concentration [%] Mean ± SEM [3]: 344.20 ± 4.65%

Structure (SMILES): O=C(O)C(=O)O.O=C(c1ccc(Cl)cc1)c1ccc(OCCCN2CCN(C(=O)C3CC3)CC2)cc1 [Compound 8, (4-(3-(4-(4-Chlorobenzoyl)phenoxy)propyl)piperazin-1-yl)(cyclopropyl)methanone hydrogen oxalate]
- Ki [1, 5]: > 1000 nM
- melting point: 176.9 to 179.2 °C
- DPPH Assay (λ = 517 nm) Absorbance Decrease in 10^−4 mol/L Concentration [%] Mean ± SEM [2]: 6.79 ± 0.51%
- FRAP Assay (λ = 593 nm) Absorbance Increase in 10^−4 mol/L Concentration [%] Mean ± SEM [3]: 0.48 ± 0.48%

Structure (SMILES): COc1cccc(N2CCN(CCCOc3ccc(C(=O)c4ccccc4)cc3)CC2)c1.O=C(O)C(=O)O [Compound 16, (4-(3-(4-(3-Methoxyphenyl)piperazin-1-yl)propoxy)phenyl)(phenyl)methanone hydrogen oxalate]
- Ki [1, 7]: 592 nM
- melting point: 143.6 to 146.1 °C
- DPPH Assay (λ = 517 nm) Absorbance Decrease in 10^−4 mol/L Concentration [%] Mean ± SEM [2]: 12.37 ± 1.31%
- DPPH assay: % of ascorbic acid activity ([2]; compound 10^−4 mol/L vs ascorbic acid 10^−4 mol/L, calculated from Table 2): 60.28% and 50–60%
- FRAP Assay (λ = 593 nm) Absorbance Increase in 10^−4 mol/L Concentration [%] Mean ± SEM [3]: 32.91 ± 0.81%

Structure (SMILES): CC(=O)c1ccc(N2CCN(CCCOc3ccc(C(=O)c4ccc(Cl)cc4)cc3)CC2)cc1 [Compound 11, 1-(4-(4-(3-(4-(4-Chlorobenzoyl)phenoxy)propyl)piperazin-1-yl)phenyl)ethan-1-one]
- Ki [1, 6]: > 1000 nM
- melting point: 180.6 to 183.4 °C
- DPPH Assay (λ = 517 nm) Absorbance Decrease in 10^−4 mol/L Concentration [%] Mean ± SEM [2]: 3.33 ± 0.45%
- FRAP Assay (λ = 593 nm) Absorbance Increase in 10^−4 mol/L Concentration [%] Mean ± SEM [3]: 3.34 ± 0.22%

Structure (SMILES): O=C(c1ccc(Cl)cc1)c1ccc(OCCCN2CCN(c3ccc([N+](=O)[O-])cc3)CC2)cc1 [Compound 14, (4-Chlorophenyl)(4-(3-(4-(4-nitrophenyl)piperazin-1-yl)propoxy)phenyl)methanone]
- Ki [1, 6]: 622 nM
- melting point: 154.5 to 155.8 °C
- DPPH Assay (λ = 517 nm) Absorbance Decrease in 10^−4 mol/L Concentration [%] Mean ± SEM [2]: 6.31 ± 1.14%
- FRAP Assay (λ = 593 nm) Absorbance Increase in 10^−4 mol/L Concentration [%] Mean ± SEM [3]: 0.22 ± 0.16%

Structure (SMILES): Clc1ccc(CCCOCCCN2CCCCC2)cc1 [Pitolisant, pitolisant]
- Ki (rH3R): 17 nM

Structure (SMILES): O=C(O)C(=O)O.O=C(c1ccc(F)cc1)c1ccc(OCCCN2CCN(C(=O)C3CC3)CC2)cc1 [Compound 9, (4-(3-(4-(Cyclopropanecarbonyl)piperazin-1-yl)propoxy)phenyl)(4-fluorophenyl)methanone hydrogen oxalate]
- Ki [1, 5]: 1670 nM
- melting point: 181.1 to 182.7 °C
- DPPH Assay (λ = 517 nm) Absorbance Decrease in 10^−4 mol/L Concentration [%] Mean ± SEM [2]: 7.70 ± 0.41%
- FRAP Assay (λ = 593 nm) Absorbance Increase in 10^−4 mol/L Concentration [%] Mean ± SEM [3]: 1.75 ± 0.22%

Structure (SMILES): CNCCc1cnc[nH]1 [[^3H]N^α-methylhistamine]
- Kd [4]: 3.08 nM

Structure (SMILES): COc1cccc(N2CCN(CCCOc3ccc(C(=O)c4ccc(Cl)cc4)cc3)CC2)c1.O=C(O)C(=O)O [Compound 17, (4-Chlorophenyl)(4-(3-(4-(3-methoxyphenyl)piperazin-1-yl)propoxy)phenyl)methanone hydrogen oxalate]
- Ki [1, 7]: 518 nM and ~500 nM
- melting point: 100.2 to 102.4 °C
- DPPH Assay (λ = 517 nm) Absorbance Decrease in 10^−4 mol/L Concentration [%] Mean ± SEM [2]: 4.88 ± 0.18%
- FRAP Assay (λ = 593 nm) Absorbance Increase in 10^−4 mol/L Concentration [%] Mean ± SEM [3]: 40.86 ± 0.98%

Structure (SMILES): C#CCN(C)Cc1cc2cc(OCCCN3CCCCC3)ccc2n1C [Contilisant]
- Ki (hσ1R): 65.2 nM
- IC50 (hBuChE): 1690 nM
- Ki (rVAChT): 46.3 nM
- Ki (rσ2R): 326 nM
- Ki (hH3R): 10.8 nM

Structure (SMILES): COc1cccc(N2CCN(CCCOc3ccc(C(=O)c4ccc(F)cc4)cc3)CC2)c1.O=C(O)C(=O)O [Compound 18, (4-Fluorophenyl)(4-(3-(4-(3-methoxyphenyl)piperazin-1-yl)propoxy)phenyl)methanone hydrogen oxalate]
- Ki [1, 5]: 715 nM
- melting point: 127.4 to 129.7 °C
- DPPH Assay (λ = 517 nm) Absorbance Decrease in 10^−4 mol/L Concentration [%] Mean ± SEM [2]: 6.35 ± 0.55%
- FRAP Assay (λ = 593 nm) Absorbance Increase in 10^−4 mol/L Concentration [%] Mean ± SEM [3]: 29.73 ± 0.39%
